Like-named read-outs stand apart in the source and are kept apart here.
How the values were obtained:
[1] = test system: TLA-3; experiment: Serine β-lactamase inhibition, nitrocefin hydrolysis by TLA-3; type: biochemical; details: nitrocefin 100 μM
Procedure: (§1) The serine–β-lactamases (1 nM) TLA-3, CMY-2, and OXA-48 were mixed with SFC in 100 mM phosphate buffer (pH 7.0) and incubated for 5 min at 30°C. Nitrocefin was added to reach a concentration of 100 μM, and the velocity of nitrocefin hydrolysis was monitored at 482 nm. Avibactam (MedKoo Bioscience, Morrisville, NC) was used as an inhibitor for serine–β-lactamases. The inhibitory effect of SFC against ACE was evaluated using ACE Kit-WST (Dojindo Laboratories, Kumamoto, Japan). The residual ACE activity was calculated as described in the manufacturer’s protocol as follows: [1 − (Acontrol − Asample)/(Acontrol − Abackground)] × 100. EDTA solution (Nippon Gene, Tokyo, Japan) was used as an ACE inhibitor.

[2] = biological target: T1, angiotensin-converting enzyme (ACE) (Homo sapiens, UniProt P12821); experiment: ACE inhibition (ACE Kit-WST); type: biochemical; details: human metalloenzyme
T1 construct: purchased Dojindo Laboratories ACE Kit-WST
Procedure: as §1

[3] = biological target: T2, CMY-2 (Klebsiella pneumoniae, UniProt Q48434); experiment: Serine β-lactamase inhibition, nitrocefin hydrolysis by CMY-2; type: biochemical; details: nitrocefin 100 μM
T2 construct: made in house; host or cells: E. coli BL21(DE3)
Procedure: as §1

[4] = test system: E. coli DH5α/pBC-IMP-1; experiment: Susceptibility and checkerboard testing, IMP-1-producing E. coli; type: cell-based, Escherichia coli; details: for MIC: Escherichia coli
Procedure: (§2) MICs were determined via the microdilution method according to the CLSI guidelines ([38]). In brief, 5 × 10^4 bacterial cells were inoculated in 100 μl of cation-adjusted Mueller-Hinton broth (Becton, Dickinson and Company, Franklin Lakes, NJ) containing the β-lactams and appropriately diluted inhibitors. The final concentration of DMSO was maintained at 2% in the assays. The tested plates were then incubated at 35°C for 16 to 20 h. The MIC value was determined as the lowest concentration of tested β-lactams where no bacterial growth was visibly observed. The optical density at 600 nm (OD600) value was measured using a plate reader for drawing the heat maps. The FIC index value was calculated using the following equation: FIC index=MIC of β-lactam with inhibitor/MIC of β-lactam alone+MIC of inhibitor with β-lactam/MIC of inhibitor alone
(§3) Unless noted otherwise, the FIC index was defined as the lowest value among all obtained values. The synergistic effect was defined as the effect observed when the FIC index value was ≤0.5.

[5] = test system: E. coli DH5α/pBC-NDM-1; experiment: Susceptibility and checkerboard testing, NDM-1-producing E. coli; type: cell-based, Escherichia coli; details: for MIC: Escherichia coli
Procedure: as §2, §3

[6] = test system: E. coli BL21(DE3)/pET-KHM-1; experiment: Susceptibility testing, KHM-1-producing E. coli; type: cell-based; details: Escherichia coli
Procedure: as §2

[7] = test system: E. coli; experiment: Growth inhibition by inhibitor alone; type: cell-based, Escherichia coli; details: at least at 128 μg/ml
Procedure: as §2

[8] = test system: IMP-1-producing E. coli NUBL-24; experiment: Mouse infection model, E. coli NUBL-24, survival; type: in vivo, mice
Procedure: All experiments were approved by the Nagoya University Animal Ethics Committee, and all experiments were performed in a manner that minimized animal suffering. Male CD1 mice (4 weeks old; 20 to 25 g body weight) were purchased from Charles River Laboratories Japan (Yokohama, Japan). E. coli NUBL-24 (blaIMP-1) and K. pneumoniae MS5674 (blaNDM-1 and blaVIM-1) strains were inoculated on LB agar plates and grown for 18 h at 37°C. Bacteria were then scraped from the plates, and their concentration was adjusted to 5 × 10^6 to 1 × 10^7 CFU in saline solution containing 5% mucin; this solution was then i.p. injected into the mice. At 1 and 3 h after infection, saline solution, MPM, inhibitors, and a combination of MPM and inhibitor were i.p. injected. Mice were monitored for 7 days to formulate survival curves, after which they were euthanized by CO2 asphyxiation.

[9] = test system: E. coli DH5α/pBC-TMB-2; experiment: Susceptibility testing, TMB-2-producing E. coli; type: cell-based; details: Escherichia coli
Procedure: as §2

[10] = test system: E. coli DH5α/pBC-VIM-2; experiment: Susceptibility and checkerboard testing, VIM-2-producing E. coli; type: cell-based, Escherichia coli; details: for MIC: Escherichia coli
Procedure: as §2, §3

[11] = test system: E. coli BL21(DE3)/pET-SPM-1; experiment: Susceptibility testing, SPM-1-producing E. coli; type: cell-based; details: Escherichia coli
Procedure: as §2

[12] = test system: P. aeruginosa PAO1/pME-VIM-2; experiment: Susceptibility testing, VIM-2-producing P. aeruginosa PAO1; type: cell-based; details: Pseudomonas aeruginosa
Procedure: as §2

[13] = test system: E. coli BL21(DE3)/pET-SIM-1; experiment: Susceptibility testing, SIM-1-producing E. coli; type: cell-based; details: Escherichia coli
Procedure: as §2

[14] = biological target: T3, OXA-48 (Klebsiella pneumoniae, UniProt Q6XEC0); experiment: Serine β-lactamase inhibition, nitrocefin hydrolysis by OXA-48; type: biochemical; details: nitrocefin 100 μM
T3 construct: made in house; host or cells: E. coli BL21(DE3)pLysS
Procedure: as §1

[15] = test system: P. aeruginosa PAO1/pME-NDM-1; experiment: Susceptibility testing, NDM-1-producing P. aeruginosa PAO1; type: cell-based; details: Pseudomonas aeruginosa
Procedure: as §2

[16] = test system: IMP-1-producing E. coli NUBL-24; experiment: Time-kill assay; type: cell-based, Escherichia coli; details: 10 μg/ml SFC added to 1 μg/ml MPM, 6 h
Procedure: The initial density of E. coli NUBL-24 (blaIMP-1) (MPM MIC, 8 μg/ml) was adjusted to approximately 5 × 10^6 CFU/ml. Either MPM (1 μg/ml) alone or SFC (10 μg/ml) alone or a combination of the two was added to the bacterial solution, and then incubation was performed at 37°C. LB broth containing only bacteria was used as a control. At 0, 2, 4, 6, and 24 h after adding the agents, an aliquot of bacterial culture was removed, diluted, and spotted on LB agar plates to count the viable bacterial cells. The detection limit was set at 200 CFU/ml.

[17] = read-out: MIC of MPM + inhibitor (8 μg/ml)
[18] = read-out: MIC of MPM + inhibitor (32 μg/ml)
[19] = PAO1, read-out: MIC of MPM + inhibitor (10 μg/ml)
[20] = PAO1, read-out: MIC of MPM + inhibitor (50 μg/ml)

T3 sequence (Q6XEC0 23-265, looked up, species assumed): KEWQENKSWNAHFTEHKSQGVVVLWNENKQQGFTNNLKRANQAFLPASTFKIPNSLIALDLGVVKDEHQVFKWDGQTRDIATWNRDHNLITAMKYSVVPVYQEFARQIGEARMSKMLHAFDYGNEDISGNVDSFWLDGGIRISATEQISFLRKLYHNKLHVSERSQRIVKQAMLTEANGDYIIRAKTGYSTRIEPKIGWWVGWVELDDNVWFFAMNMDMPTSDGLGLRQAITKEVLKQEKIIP
T2 sequence (Q48434 21-381, species assumed): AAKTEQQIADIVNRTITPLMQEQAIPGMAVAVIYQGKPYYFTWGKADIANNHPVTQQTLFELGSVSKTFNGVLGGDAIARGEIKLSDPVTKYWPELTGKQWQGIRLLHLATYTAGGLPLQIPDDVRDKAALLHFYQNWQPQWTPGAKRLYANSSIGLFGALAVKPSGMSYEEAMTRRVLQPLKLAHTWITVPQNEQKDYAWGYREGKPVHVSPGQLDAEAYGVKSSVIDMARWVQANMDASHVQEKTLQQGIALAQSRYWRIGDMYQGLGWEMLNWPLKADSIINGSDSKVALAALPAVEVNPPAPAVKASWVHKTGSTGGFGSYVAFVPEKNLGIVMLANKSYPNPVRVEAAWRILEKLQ
T1 sequence (P12821 30-1306): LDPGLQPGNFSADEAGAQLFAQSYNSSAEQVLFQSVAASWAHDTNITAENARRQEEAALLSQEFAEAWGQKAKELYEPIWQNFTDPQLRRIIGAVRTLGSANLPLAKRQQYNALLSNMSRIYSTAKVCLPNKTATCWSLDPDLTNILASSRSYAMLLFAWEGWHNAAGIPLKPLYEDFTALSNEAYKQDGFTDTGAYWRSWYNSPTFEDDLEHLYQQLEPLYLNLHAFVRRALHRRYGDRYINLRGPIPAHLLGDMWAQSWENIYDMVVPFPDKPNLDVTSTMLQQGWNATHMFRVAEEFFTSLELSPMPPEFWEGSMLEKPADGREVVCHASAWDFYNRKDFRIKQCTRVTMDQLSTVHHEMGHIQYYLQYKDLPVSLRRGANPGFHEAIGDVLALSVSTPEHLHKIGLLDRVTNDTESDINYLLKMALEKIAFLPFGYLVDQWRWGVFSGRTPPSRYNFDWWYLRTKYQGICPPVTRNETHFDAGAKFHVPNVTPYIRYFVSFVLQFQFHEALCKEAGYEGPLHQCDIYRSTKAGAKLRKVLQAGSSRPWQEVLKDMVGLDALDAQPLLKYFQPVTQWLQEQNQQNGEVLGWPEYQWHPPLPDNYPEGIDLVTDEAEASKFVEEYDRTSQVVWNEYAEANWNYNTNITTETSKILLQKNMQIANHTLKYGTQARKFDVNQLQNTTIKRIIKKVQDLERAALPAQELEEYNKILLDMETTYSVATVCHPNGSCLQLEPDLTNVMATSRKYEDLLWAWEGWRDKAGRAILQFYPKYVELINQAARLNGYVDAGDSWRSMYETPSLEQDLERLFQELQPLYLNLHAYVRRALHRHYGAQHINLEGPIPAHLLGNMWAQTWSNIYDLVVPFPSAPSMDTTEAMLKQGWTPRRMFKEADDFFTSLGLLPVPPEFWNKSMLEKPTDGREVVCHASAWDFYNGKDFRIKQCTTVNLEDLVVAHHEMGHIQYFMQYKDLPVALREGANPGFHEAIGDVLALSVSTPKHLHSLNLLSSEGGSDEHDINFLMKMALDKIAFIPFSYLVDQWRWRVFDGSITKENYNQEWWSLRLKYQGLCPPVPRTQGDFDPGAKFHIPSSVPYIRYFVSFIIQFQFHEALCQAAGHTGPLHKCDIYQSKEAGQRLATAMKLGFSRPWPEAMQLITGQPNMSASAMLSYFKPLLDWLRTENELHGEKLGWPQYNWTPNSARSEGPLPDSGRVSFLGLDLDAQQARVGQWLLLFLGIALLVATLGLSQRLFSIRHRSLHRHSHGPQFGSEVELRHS

Q: What does the source list for `Cc1oc(C)c(S(N)(=O)=O)c1C(=O)O` [SFC, 2,5-dimethyl-4-sulfamoylfuran-3-carboxylic acid]?
A: Inhibitory effect against TLA-3 (class A) [1]: nonexistent or insufficient; Inhibitory effect on ACE [2]: no inhibitory effect; Inhibitory effect against CMY-2 (class C) [3]: nonexistent or insufficient; MIC meropenem + 2 μg/mL compound ([4]; E. coli DH5α/pBC-IMP-1): 0.063 µg/mL; Reduction in MPM MIC ([4]; E. coli DH5α/pBC-IMP-1, 2 μg/ml compound): 16 fold; Reduction in MPM MIC ([4]; E. coli DH5α/pBC-IMP-1, 10 μg/ml compound): 16 fold; MIC [4, 17]: 0.031 µg/mL; MIC [4, 18]: 0.031 µg/mL; FIC index ([4]; checkerboard with MPM, E. coli DH5α/pBC-IMP-1, lowest value): 0.06; MIC meropenem + 2 μg/mL compound ([5]; E. coli DH5α/pBC-NDM-1): 16 µg/mL; Reduction in MPM MIC ([5]; E. coli DH5α/pBC-NDM-1, 2 μg/ml compound): 4 fold; MIC [5, 17]: 2 µg/mL; MIC [5, 18]: ≤ 0.25 µg/mL; FIC index ([5]; checkerboard with MPM, E. coli DH5α/pBC-NDM-1, lowest value): 0.09; MIC [6, 17]: 4 µg/mL; MIC [6, 18]: 2 µg/mL; Growth inhibition by SFC alone [7]: did not show growth inhibition; Mice rescued from death at the endpoint ([8]; MPM (0.2 mg/kg)-SFC (100 mg/kg) combination therapy, i.p., 7 days following infection): 90%; Rescue of infected mice by monotherapy ([8]; SFC 100 mg/kg or MPM 0.2 mg/kg i.p. at 1 and 3 h after infection, within 48 h): failed to rescue mice; MIC [9, 17]: 0.5 µg/mL; MIC [9, 18]: 0.125 µg/mL; MIC ceftazidime + 2 μg/mL compound ([10]; E. coli DH5α/pBC-VIM-2): 16 µg/mL; Reduction in CAZ MIC ([10]; E. coli DH5α/pBC-VIM-2, 2 μg/ml compound): no reduction; MIC ([10]; read-out: MIC of CAZ + inhibitor (8 μg/ml)): 4 µg/mL; MIC ([10]; read-out: MIC of CAZ + inhibitor (32 μg/ml)): 2 µg/mL; FIC index ([10]; checkerboard with CAZ, E. coli DH5α/pBC-VIM-2, lowest value): 0.31; MIC [11, 17]: 0.063 µg/mL; MIC [11, 18]: 0.063 µg/mL; MIC [12, 19]: 32 µg/mL; MIC [12, 20]: 16 µg/mL; MIC [13, 17]: 2 µg/mL; MIC [13, 18]: 1 µg/mL; Inhibitory effect against OXA-48 (class D) [14]: nonexistent or insufficient; MIC [15, 19]: 4 µg/mL; MIC [15, 20]: 4 µg/mL; Reduction of bacterial population [16]: more than 1,000 fold
